A value given as a limit tells only on which side of the number the result lay.

In PubChem BioAssay AID1417 (Emory University Molecular Libraries Screening Center, 2008) one finds IC50 data, which are given here for 36 molecules.

The target of the assay is Induced myeloid leukemia cell differentiation protein Mcl-1 (Homo sapiens) (UniProt Q07820). Kind of assay: Mcl-1 Noxa peptide disruption concentration-response – biochemical, TR-FRET, dose response (AID 1417). The settings on record: Mcl-1/Noxa peptide interaction, cell-free TR-FRET (terbium/rhodamine), 2 h; measured here: absolute IC50.
Chain of Induced myeloid leukemia cell differentiation protein Mcl-1 (Homo sapiens) (Q07820 whole entry, looked up): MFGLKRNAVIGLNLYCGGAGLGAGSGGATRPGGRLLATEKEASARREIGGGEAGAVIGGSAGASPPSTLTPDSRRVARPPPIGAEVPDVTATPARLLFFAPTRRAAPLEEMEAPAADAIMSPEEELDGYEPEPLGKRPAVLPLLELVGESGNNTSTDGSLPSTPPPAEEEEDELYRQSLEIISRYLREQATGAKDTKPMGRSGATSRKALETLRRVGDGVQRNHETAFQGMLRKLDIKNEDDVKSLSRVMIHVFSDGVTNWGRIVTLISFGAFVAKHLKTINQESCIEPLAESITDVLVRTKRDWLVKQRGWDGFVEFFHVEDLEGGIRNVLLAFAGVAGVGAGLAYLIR

For `CC(C)C(C(=O)O)N1C(=O)/C(=C/C=C/c2ccco2)SC1=S` (stereo unspecified), the IC50 is < 400 nM.

In the case of `Cc1c(NS(=O)(=O)c2cc(NC(=O)CCN3CCCC(C)C3)ccc2Cl)c(=O)n(-c2ccccc2)n1C` (stereo unspecified), the IC50 is > 54000 nM. With `CC1(C)CC(=O)C(C=Nc2cccc(/N=C/C3=C(O)CC(C)(C)CC3=O)n2)=C(O)C1`, the 50% inhibitory concentration (IC50) was > 54000 nM. On to `NC(=S)n1[nH]c(-c2ccc([N+](=O)[O-])cc2)c(N=Nc2ccc(Cl)cc2)c1=O`, for which the IC50 was < 400 nM. `CNc1sc(C(=O)c2ccc(F)cc2)c(N)c1-c1nc2ccccc2s1` displayed an IC50 of 2090 nM. For the molecule `N#C/C(=C/c1ccc(OCc2ccc(C(=O)O)cc2)c(Br)c1)c1cccc(F)c1`, the IC50 was < 400 nM. As for `CC1CC1C(=O)OCC(=O)Nc1ccc2[nH]c(=O)[nH]c2c1` (stereo unspecified), the IC50 turned out to be 4380 nM. Then `O=C(Nc1ccc(N2CCCC2)cc1)c1ccc(Br)o1`, with 1060 nM. For `COC(=O)C1=C(C(=O)OC)C(c2cc(Cl)ccc2O)c2sc(=O)[nH]c2S1` (stereo unspecified), the IC50 was 3350 nM. Regarding `O=C(COC(=O)c1c2c(nc3ccccc13)/C(=C/c1ccco1)CC2)NC1CCCC1`, the 50% inhibitory concentration (IC50) amounted to 2350 nM. With `CCC(=O)Oc1ccc2c(=O)c(-c3ccc4ccccc4n3)c(CC)oc2c1C`, the IC50 was > 54000 nM. Next, `O=c1[nH]c(C(Cl)Cl)nc2sc3c(c12)CCN(Cc1ccccc1)C3`: > 54000 nM. Then `CCS(=O)(=O)C1=NN2C(=N)/C(=C\c3ccc(SCc4ccco4)o3)C(=O)N=C2S1`, with 1460 nM; and `CC(/C=C1\SC(=S)N(NS(=O)(=O)c2ccc(C)cc2)C1=O)=C\c1ccccc1`, with 5660 nM; and `C=CCSC1=N/C(=C\C=C\c2ccco2)C(=O)S1`, with 5070 nM.

The molecule `O=C(O)c1cc(-c2ccc(/C=C3/SC(=S)N(Cc4ccccc4)C3=O)o2)ccc1Cl` yielded an IC50 of 1510 nM. As for `N=c1oc2cc(O)ccc2cc1C(=O)Nc1nc2ccccc2s1`, the IC50 is 2930 nM.

On to `CCNc1nc(NCC)nc(C(=O)NN)n1`, for which the IC50 was < 400 nM. Consider `COc1ccc2c(c1)c1ccc3c(c1n2C)C(=O)C=CC3=O`, for which the IC50 is < 400 nM. As for `CC(C)c1ccc(S(=O)(=O)/N=C2/C=C(Sc3ncn[nH]3)C(=O)c3ccccc32)cc1`, the IC50 is < 400 nM. The molecule `Cc1ccc(NC(=O)CN2C(=O)S/C(=C\c3cccn3-c3cccc(C(=O)O)c3)C2=O)c(C)c1` registered an IC50 of 13100 nM. As to `c1ccc(CN=C2NN=C(c3cc4ccccc4o3)CS2)cc1`, the IC50 was > 54000 nM. Regarding `Cc1ccc2c(c1)C1CN(C)CCC1N2C(=O)Nc1cccc(Cl)c1` (stereo unspecified), the IC50 was > 54000 nM. For `NC(=S)n1[nH]c(-c2ccc([N+](=O)[O-])cc2)c(N=Nc2cccc(Cl)c2)c1=O`, the IC50 is 1480 nM. For `Cc1ccc(-n2c(O)c(C=Nc3ccccc3-c3n[nH]c(=S)[nH]c3=O)c3ccccc3c2=O)cc1C`, the IC50 came to 2750 nM. Take `CC1=C(C#N)C(=O)NC(=O)/C1=C\c1ccc(-c2cc(C)c(C)cc2[N+](=O)[O-])o1`: the IC50 is < 400 nM. On to `O=C(O)C1Nc2c(O)cc(Cl)c([N+](=O)[O-])c2C2C=CCC12` (stereo unspecified), for which the IC50 is < 400 nM. `O=C(NN1C(=O)/C(=C/C=C/c2ccco2)SC1=S)c1ccccc1O` came in with an IC50 of 1010 nM. For `N=C1/C(=C/c2ccc(-c3cccc(C(=O)O)c3)o2)C(=O)N=C2SC=C(c3ccccc3)N12`, the IC50 is < 400 nM. As for `CCNc1ccc(Br)cc(C(=O)/C=C/c2ccc3c(c2)OCO3)c1=O`, the IC50 stood at 499 nM.

As to `COc1ccc(O)c(C(=O)c2cc(SCC(=O)O)c3nc4sc5c(c4c(=O)n3c2)CCCC5)c1`, the IC50 is < 400 nM.

Regarding `CCN(CC)S(=O)(=O)c1ccc(N2CCOCC2)c(NC(=O)c2c3c(nc4ccccc24)CCC3)c1`, the IC50 was 5730 nM.

As for `CN1CCC(N(C)c2nc(-c3ccc([N+](=O)[O-])cc3)nc3ccccc23)CC1`, the IC50 is < 400 nM. `Cc1nnc(NC(=O)COc2ccc3c(C)cc(=O)oc3c2)s1`: the IC50 is 5880 nM.

Take `O=[N+]([O-])c1cc(/C=N/Nc2nc3ccccc3[nH]2)c(O)cc1O`: the half-inhibitory concentration (IC50) was 13300 nM. `COc1cc(/C=C(\C#N)c2nc3ccccc3s2)cc([N+](=O)[O-])c1O`: the half-inhibitory concentration (IC50) turned out to be 3370 nM.

Broadly, the IC50 is the concentration that inhibits the measured activity by half. Read a low IC50 as greater potency.
